From ChEMBL document CHEMBL3044895, “Insecticidal and Antiacetyicholinesterase Activities of Isobutylthioaryl Methanesulfonates” (J Pestic Sci, 1991)
pIC50: −log10 of the molar value.

Assays:
[1] = tested on: Plutella xylostella; experiment: Insecticidal activity against Plutella xylostella (diamondback moth) assessed as mortality at 200 ppm after 2 days by foliar spraying method; format: functional; details: 48 h
[2] = tested on: Nilaparvata lugens; experiment: Insecticidal activity against Nilaparvata lugens (brown planthopper) assessed as mortality at 200 ppm after 6 days by foliar spraying method; format: functional; details: 144 h
[3] = tested on: Culex pipiens; experiment: Insecticidal activity against Culex pipiens assessed as mortality at 200 ppm after 2 days by immersion method; format: functional; details: 48 h
[4] = tested on: Tetranychus urticae; experiment: Acaricidal activity against Tetranychus urticae (two-spotted spider mite) assessed as mortality at 200 ppm after 2 days by leaf dipping method; format: functional; details: foliar, 48 h
[5] = tested on: Nephotettix cincticeps; experiment: Insecticidal activity against drug-susceptible Nephotettix cincticeps Ageo (green rice leafhopper) assessed as mortality […] after 2 days by foliar spraying method; format: functional; details: 48 h
[6] = tested on: Nephotettix cincticeps; experiment: Insecticidal activity against Nephotettix cincticeps Izumi (green rice leafhopper) assessed as mortality at 200 ppm after 6 days by foliar spraying method; format: functional; details: 144 h
[7] = tested on: Nephotettix cincticeps; experiment: Insecticidal activity against drug-resistant Nephotettix cincticeps Izumi (green rice leafhopper) assessed as mortality […] after 2 days by foliar spraying method; format: functional; details: 48 h
[8] = Drug degradation in sorensen buffer assessed as hydrolysis at 3 x 10^-5 M at pH 7.4 after 24 hr; format: physicochemical; details: read-out: Drug degradation
[9] = tested on: Nephotettix cincticeps; experiment: Insecticidal activity against Nephotettix cincticeps Izumi (green rice leafhopper) assessed as mortality at 200 ppm after 2 days by foliar spraying method; format: functional; details: 48 h
[10] = tested on: Nilaparvata lugens; experiment: Insecticidal activity against Nilaparvata lugens (brown planthopper) assessed as mortality at 200 ppm after 2 days by foliar spraying method; format: functional; details: 48 h
[11] = Lipophilicity, log K of the compound; format: physicochemical; details: octanol/water
[12] = biological target: Acetylcholinesterase (Musca domestica, UniProt Q7YWJ9); experiment: Inhibition of Musca domestica (house fly) NAIDM head acetylcholinesterase; details: read-out: I50
[13] = tested on: Nephotettix cincticeps; experiment: Insecticidal activity against drug-susceptible Nephotettix cincticeps Ageo (green rice leafhopper) assessed as mortality after 2 days by foliar spraying method; format: functional; details: 48 h
[14] = biological target: T1, Acetylcholinesterase (Bos taurus, UniProt P23795); experiment: Inhibition of Bos taurus (bovine) erythrocytes acetylcholinesterase; details: read-out: I50
T1 sequence (P23795 whole entry): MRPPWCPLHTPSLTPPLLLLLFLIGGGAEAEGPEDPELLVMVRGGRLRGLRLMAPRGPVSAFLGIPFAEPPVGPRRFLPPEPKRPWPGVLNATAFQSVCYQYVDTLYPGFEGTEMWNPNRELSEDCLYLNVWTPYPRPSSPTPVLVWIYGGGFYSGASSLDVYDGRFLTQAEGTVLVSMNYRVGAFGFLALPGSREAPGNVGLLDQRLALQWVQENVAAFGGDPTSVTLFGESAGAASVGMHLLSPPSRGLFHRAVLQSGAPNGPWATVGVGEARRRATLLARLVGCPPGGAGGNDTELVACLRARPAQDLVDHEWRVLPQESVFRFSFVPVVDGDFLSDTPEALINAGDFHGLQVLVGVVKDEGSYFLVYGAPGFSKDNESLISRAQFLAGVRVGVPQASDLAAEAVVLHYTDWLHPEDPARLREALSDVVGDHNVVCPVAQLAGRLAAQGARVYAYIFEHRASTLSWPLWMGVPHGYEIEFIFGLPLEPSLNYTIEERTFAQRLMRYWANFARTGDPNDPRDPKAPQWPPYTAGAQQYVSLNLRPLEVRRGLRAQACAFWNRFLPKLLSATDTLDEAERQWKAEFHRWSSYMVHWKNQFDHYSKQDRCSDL

[15] = biological target: Ace-orthologous acetylcholinesterase (Nephotettix cincticeps, UniProt Q9NJH6); experiment: Inhibition of drug-susceptible Nephotettix cincticeps Ageo (green rice leafhopper) acetylcholinesterase; details: read-out: I50
[16] = tested on: Musca domestica; experiment: Insecticidal activity against Musca domestica (house fly) NAIDM; format: functional

Chain of Acetylcholinesterase (Musca domestica, UniProt Q7YWJ9) (Q7YWJ9 whole entry): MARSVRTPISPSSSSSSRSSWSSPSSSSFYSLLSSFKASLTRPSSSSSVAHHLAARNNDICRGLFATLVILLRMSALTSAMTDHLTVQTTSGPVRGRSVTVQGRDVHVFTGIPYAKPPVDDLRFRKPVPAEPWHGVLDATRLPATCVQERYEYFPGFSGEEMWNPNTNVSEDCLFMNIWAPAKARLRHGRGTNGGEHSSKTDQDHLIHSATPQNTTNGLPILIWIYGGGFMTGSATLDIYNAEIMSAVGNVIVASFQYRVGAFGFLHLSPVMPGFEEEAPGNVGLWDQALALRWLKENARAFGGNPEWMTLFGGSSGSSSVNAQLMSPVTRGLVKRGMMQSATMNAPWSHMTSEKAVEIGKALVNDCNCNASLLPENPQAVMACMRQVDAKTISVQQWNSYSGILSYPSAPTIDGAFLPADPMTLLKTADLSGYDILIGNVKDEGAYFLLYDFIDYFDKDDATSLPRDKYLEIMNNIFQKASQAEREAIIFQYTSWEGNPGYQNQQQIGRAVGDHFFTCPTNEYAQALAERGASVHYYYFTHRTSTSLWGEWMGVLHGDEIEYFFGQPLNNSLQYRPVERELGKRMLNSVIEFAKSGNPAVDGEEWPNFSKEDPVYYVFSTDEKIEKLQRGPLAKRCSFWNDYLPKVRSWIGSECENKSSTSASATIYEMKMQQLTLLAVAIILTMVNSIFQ
Chain of Ace-orthologous acetylcholinesterase (Q9NJH6 whole entry): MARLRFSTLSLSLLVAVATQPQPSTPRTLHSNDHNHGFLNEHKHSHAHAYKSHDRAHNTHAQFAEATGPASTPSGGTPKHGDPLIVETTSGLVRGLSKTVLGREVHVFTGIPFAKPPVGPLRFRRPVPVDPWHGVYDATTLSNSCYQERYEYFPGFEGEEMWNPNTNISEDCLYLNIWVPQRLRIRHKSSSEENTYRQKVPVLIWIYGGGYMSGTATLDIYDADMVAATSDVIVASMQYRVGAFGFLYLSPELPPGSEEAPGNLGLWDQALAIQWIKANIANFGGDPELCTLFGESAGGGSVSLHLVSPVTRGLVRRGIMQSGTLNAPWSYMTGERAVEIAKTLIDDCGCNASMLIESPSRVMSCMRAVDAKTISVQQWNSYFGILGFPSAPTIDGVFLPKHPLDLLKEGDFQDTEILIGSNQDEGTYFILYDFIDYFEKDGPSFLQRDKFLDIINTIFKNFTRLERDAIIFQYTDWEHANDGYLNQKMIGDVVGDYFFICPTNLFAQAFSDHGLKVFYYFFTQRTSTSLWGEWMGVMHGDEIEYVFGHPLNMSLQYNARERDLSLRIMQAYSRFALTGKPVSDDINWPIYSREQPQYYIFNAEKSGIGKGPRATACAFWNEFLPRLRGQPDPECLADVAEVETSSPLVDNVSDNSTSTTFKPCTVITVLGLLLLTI

| SMILES | mortality at 200 ppm [1] [%] | mortality at 200 ppm [2] [%] | mortality at 200 ppm [3] [%] | mortality at 200 ppm [4] [%] | LD50 [5] [mg/kg] | mortality at 200 ppm [6] [%] | LD50 [7] [mg/kg] | degraded at 24 h, 30 µM [8] [%] | mortality at 200 ppm [9] [%] | mortality at 200 ppm [10] [%] | log K [11] | pIC50 [12] | LD50 [13] [mg/kg] | pIC50 [14] | pIC50 [15] | LD50 [16] [µg] |
| --- | --- | --- | --- | --- | --- | --- | --- | --- | --- | --- | --- | --- | --- | --- | --- | --- |
| CC(C)CSc1cc(OS(C)(=O)=O)ccn1 | 70 | 100 | 100 | < 10 | 5.4 | 70 | 66.4 | 5.9 | 30 | 70 | 0.379 |  |  |  |  |  |
| CC(C)CSc1nccc(OS(C)(=O)=O)n1 | 0 | 20 | 0 | < 10 | > 100 | 30 | > 100 | 88.8 | 20 | 20 | 0.18 |  |  |  |  |  |
| CC(C)CSc1nc(OS(C)(=O)=O)cs1 | 0 |  | 100 | < 10 | 8.2 |  | 11.1 | 9.8 | 100 | 100 | 0.316 | 2.66 | 14.9 | 4.51 | 4.24 | 3.9 |
| CC(C)CSc1nc(OS(C)(=O)=O)cc2ccccc12 | 0 | 60 | 40 | < 10 |  | 60 |  |  | 30 | 0 |  |  |  |  |  |  |
| CC(C)CS(=O)(=O)c1nc(OS(C)(=O)=O)cs1 |  |  |  |  |  |  |  |  |  |  |  | 9.01 | 0.52 | 5.85 | 8.72 | >100 |
| CC(C)CS(=O)(=O)c1cccc(OS(C)(=O)=O)n1 |  |  |  |  |  |  |  |  |  |  |  | 6.82 | 1.15 | 6.05 | 8.24 | 16 |
| CC(C)C[S+]([O-])c1cccc(OS(C)(=O)=O)c1 (stereo unspecified) [3-(ISOBUTYLSULFINYL)PHENYL METHANESULFONATE] |  |  |  |  |  |  |  |  |  |  |  | 4.92 | 3.18 | 6.25 | 8.70 | 1.46 |
| CC(C)CS(=O)(=O)c1cccc(OS(C)(=O)=O)c1 [3-(ISOBUTYLSULFONYL)PHENYL METHANESULFONATE] |  |  |  |  |  |  |  |  |  |  |  | 6.43 | 13 | 6.00 | 7.34 | >100 |
| CC(C)CSc1cc2ccccc2c(OS(C)(=O)=O)n1 [3-(ISOBUTYLTHIO)ISOQUINOLIN-1-YL METHANESULFONATE] | 0 | 10 | 50 | < 10 |  | 80 |  |  | 20 | 0 |  |  |  |  |  |  |
| CC(C)CSc1cccc(OS(C)(=O)=O)c1 [3-(ISOBUTYLTHIO)PHENYL METHANESULFONATE] | 0 |  | 100 | < 10 | 10.8 |  | 26.1 | 2.6 | 100 | 100 | 0.541 |  |  |  |  |  |
| CC(C)CSc1cccnc1OS(C)(=O)=O [3-(ISOBUTYLTHIO)PYRIDIN-2-YL METHANESULFONATE] | 0 | 90 | 30 | < 10 |  | 100 |  |  | 40 | 50 |  |  |  |  |  |  |
| CC(C)CS(=O)(=O)c1ccnc(OS(C)(=O)=O)c1 [4-(ISOBUTYLSULFONYL)PYRIDIN-2-YL METHANESULFONATE] |  |  |  |  |  |  |  |  |  |  |  | 5.72 | 0.72 | 6.10 | 7.59 | 0.33 |
| CC(C)CSc1ccnc(OS(C)(=O)=O)c1 [4-(ISOBUTYLTHIO)PYRIDIN-2-YL METHANESULFONATE] | 0 |  | 100 | < 10 | 2.3 |  | 2.8 | 4.5 | 100 | 100 | 0.324 |  |  |  |  |  |
| CC(C)CSc1nnc(OS(C)(=O)=O)s1 [5-(ISOBUTYLTHIO)-1,3,4-THIADIAZOL-2-YL METHANESULFONATE] | 70 | 20 | 0 | < 10 |  | 0 |  |  | 0 | 0 |  |  |  |  |  |  |
| CC(C)CSc1ccc(OS(C)(=O)=O)nc1 [5-(ISOBUTYLTHIO)PYRIDIN-2-YL METHANESULFONATE] | 0 |  | 10 | < 10 |  | 10 |  |  | 0 | 100 |  |  |  |  |  |  |
| CC(C)CSc1cncc(OS(C)(=O)=O)c1 [5-(ISOBUTYLTHIO)PYRIDIN-3-YL METHANESULFONATE] | 0 |  | 100 | < 10 | 1.9 |  | 3.7 | 3.8 | 100 | 100 | 0.258 |  |  |  |  |  |
| CC(C)CSc1cncc(OS(C)(=O)=O)n1 [6-(ISOBUTYLTHIO)PYRAZIN-2-YL METHANESULFONATE] | 0 |  | 100 | < 10 | 4.6 | 70 | 40.1 | 36.6 | 50 | 100 | 0.32 |  |  |  |  |  |
| CC(C)CSc1ccc(OS(C)(=O)=O)nn1 [6-(ISOBUTYLTHIO)PYRIDAZIN-3-YL METHANESULFONATE] | 0 | 0 | 0 | < 10 |  | 0 |  |  | 0 | 0 |  |  |  |  |  |  |
| CC(C)CSc1cccc(OS(C)(=O)=O)n1 [6-(ISOBUTYLTHIO)PYRIDIN-2-YL METHANESULFONATE] | 0 |  | 100 | 72 | 1.8 |  | 2.9 | 1.8 | 100 | 100 | 0.4 | 2.89 | 1.06 | 2.70 | 2.70 | 1.11 |
| CC(C)CSc1cc(OS(C)(=O)=O)ncn1 [6-(ISOBUTYLTHIO)PYRIMIDIN-4-YL METHANESULFONATE] | 0 | 100 | 0 | < 10 | > 100 | 0 | > 100 | 100 | 0 | 80 | 0.391 |  |  |  |  |  |
| CNC(=O)Oc1cccc2ccccc12 [CARBARIL] |  |  |  |  |  |  |  |  |  |  |  | 6.70 |  |  | 7.54 |  |
| CCC(C)c1ccccc1OC(=O)NC (stereo unspecified) [FENOBUCARB] |  |  |  |  |  |  |  |  |  |  |  | 5.85 | 11.8 | 4.92 | 6.74 | 1.44 |
